Laboratory results: US8063099B2, “Trans-3-aza-bicyclo[3.1.0]hexane derivatives” (Actelion Pharmaceuticals Ltd., priority 2007, dated 2011)
Where two headings read alike, the source gives them in different places.

Assays:
[1] = target: T1, human orexin-2 receptor (Homo sapiens, UniProt O43614); experiment: Intracellular calcium measurements (FLIPR), orexin receptor antagonistic activity; assay type: cell-based; conditions: CHO cells expressing human orexin-2 receptor, 3 nM orexin-A, read-out: OX2 IC50
T1 construct: expressed in transfected cells; host or cells: Chinese hamster ovary (CHO) cells, G418 selection
T1 sequence (O43614 1-444): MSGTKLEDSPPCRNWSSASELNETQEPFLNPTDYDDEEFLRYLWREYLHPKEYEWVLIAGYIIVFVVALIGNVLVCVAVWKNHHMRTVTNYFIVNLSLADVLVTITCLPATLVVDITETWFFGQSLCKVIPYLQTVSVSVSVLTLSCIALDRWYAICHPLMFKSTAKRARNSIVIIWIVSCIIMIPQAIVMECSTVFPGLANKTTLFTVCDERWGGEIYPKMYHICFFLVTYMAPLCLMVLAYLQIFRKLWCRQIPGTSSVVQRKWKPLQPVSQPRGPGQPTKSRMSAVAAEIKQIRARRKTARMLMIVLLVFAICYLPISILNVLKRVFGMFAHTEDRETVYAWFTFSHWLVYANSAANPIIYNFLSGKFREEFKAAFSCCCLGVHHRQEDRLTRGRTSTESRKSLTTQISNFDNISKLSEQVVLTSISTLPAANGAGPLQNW
Protocol: (§1) The orexin receptor antagonistic activity of the compounds of formula (I) is determined in accordance with one of the following experimental methods.
(§2) Intracellular Calcium Measurements:
(§3) Chinese hamster ovary (CHO) cells expressing the human orexin-1 receptor and the human orexin-2 receptor, respectively, are grown in culture medium (Ham F-12 with L-Glutamine) containing 300 μg/ml G418, 100 U/ml penicillin, 100 μg/ml streptomycin and 10% heat inactivated fetal calf serum (FCS). The cells are seeded at 20'000 cells/well into 384-well black clear bottom sterile plates (Greiner). The seeded plates are incubated overnight at 37° C. in 5% CO2.
(§4) Human orexin-A as an agonist is prepared as 1 mM stock solution in MeOH:water (1:1), diluted in HBSS containing 0.1% bovine serum albumin (BSA), NaHCO3:0.375 g/l and 20 mM HEPES for use in the assay at a final concentration of 3 nM.
(§5) Antagonists are prepared as 10 mM stock solution in DMSO, then diluted in 384-well plates, first in DMSO, then in HBSS containing 0.1% bovine serum albumin (BSA), NaHCO3: 0.375 g/l and 20 mM HEPES.
(§6) On the day of the assay, 50 μl of staining buffer (HBSS containing 1% FCS, 20 mM HEPES, NaHCO3: 0.375 g/l, 5 mM probenecid (Sigma) and 3 μM of the fluorescent calcium indicator fluo-4 AM (1 mM stock solution in DMSO, containing 10% pluronic) is added to each well.
(§7) The 384-well cell-plates are incubated for 50 min at 37° C. in 5% CO2 followed by equilibration at RT for 30-120 min before measurement.
(§8) Within the Fluorescent Imaging Plate Reader (FLIPR2 or FLIPR Tetra, Molecular Devices), antagonists are added to the plate in a volume of 10 μl/well, incubated for 10 min and finally 10 μl/well of agonist is added. Fluorescence is measured for each well at 1 second intervals, and the height of each fluorescence peak is compared to the height of the fluorescence peak induced by 3 nM orexin-A with vehicle in place of antagonist. For each antagonist, the IC50 value (the concentration of compound needed to inhibit 50% of the agonistic response) is determined. With the FLIPR Tetra, non-optimized and optimized conditions were used. Optimized conditions were achieved by adjustment of pipetting speed and cell splitting regime. The calculated IC50 values of the compounds may fluctuate depending on the daily cellular assay performance. Fluctuations of this kind are known to those skilled in the art.

[2] = target: T2, human orexin-1 receptor (Homo sapiens, UniProt O43613); experiment: as above; assay type: cell-based; conditions: CHO cells expressing human orexin-1 receptor, 3 nM orexin-A, read-out: OX1 IC50
T2 construct: expressed in transfected cells; host or cells: Chinese hamster ovary (CHO) cells, G418 selection
T2 sequence (O43613 1-425): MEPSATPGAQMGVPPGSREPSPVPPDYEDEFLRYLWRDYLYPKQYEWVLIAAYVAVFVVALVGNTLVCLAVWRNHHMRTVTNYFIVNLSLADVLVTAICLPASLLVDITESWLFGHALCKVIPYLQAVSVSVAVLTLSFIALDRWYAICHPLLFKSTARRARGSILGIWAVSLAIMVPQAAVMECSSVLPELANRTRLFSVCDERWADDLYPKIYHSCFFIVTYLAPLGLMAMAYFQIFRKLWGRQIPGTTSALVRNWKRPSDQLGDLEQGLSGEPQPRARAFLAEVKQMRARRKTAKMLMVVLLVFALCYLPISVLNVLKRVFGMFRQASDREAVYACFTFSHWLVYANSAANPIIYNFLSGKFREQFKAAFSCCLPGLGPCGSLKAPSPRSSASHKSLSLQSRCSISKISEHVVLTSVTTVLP
Protocol: as §1, §2, §3, §4, §5, §6, §7, §8

[3] = FLIPR Tetra, optimized conditions
[4] = FLIPR Tetra, non-optimized conditions

SMILES	IC50 ([1]; FLIPR2)	IC50 ([2]; FLIPR2)	also measured
Cc1nc(C(=O)N2C[C@@H]3C[C@@H]3[C@H]2CNC(=O)c2cccc(Br)c2)c(-c2cccc(Cl)c2)s1 [Example 74, 3-Bromo-N-{(1S,2S,5R)-3-[5-(3-chloro-phenyl)-2-methyl-thiazole-4-carbonyl]-3-aza-bicyclo[3.1.0]hex-2-ylmethyl}-benzamide]	48 nM	84 nM	
Cc1nc2sccn2c1C(=O)NC[C@@H]1[C@H]2C[C@H]2CN1C(=O)c1ccccc1-c1csc(N)n1 [Example 24, 6-Methyl-imidazo[2,1-b]thiazole-5-carboxylic acid{(1S,2S,5R)-3-[2-(2-amino-thiazol-4-yl)-benzoyl]-3-aza-bicyclo[3.1.0]hex-2-ylmethyl}-amide]	647 nM	102 nM	
Cc1c(C(=O)NC[C@@H]2[C@H]3C[C@H]3CN2C(=O)c2nc(N)sc2-c2cccc(F)c2)sc2nccn12 [Example 124, 3-Methyl-imidazo[2,1-b]thiazole-2-carboxylic Acid{(1S,2S,5R)-3-[2-amino-5-(3-fluoro-phenyl)-thiazole-4-carbonyl]-3-aza-bicyclo[3.1.0]hex-2-ylmethyl}-amide]	12 nM	7030 nM	
Cc1ccc(-c2sccc2C(=O)N2C[C@@H]3C[C@@H]3[C@H]2CNC(=O)c2cccc3nsnc23)cc1 [Example 274, Benzo[2,1,3]thiadiazole-4-carboxylic acid [(1S,2S,5R)-3-(2-p-tolyl-thiophene-3-carbonyl)-3-aza-bicyclo[3.1.0]hex-2-ylmethyl]-amide]			IC50 [1, 3]: 55 nM; IC50 [2, 3]: 58 nM
Cc1nc2sccn2c1C(=O)NC[C@@H]1[C@H]2C[C@H]2CN1C(=O)c1ccccc1-c1ccccc1F [Example 19, 6-Methyl-imidazo[2,1-b]thiazole-5-carboxylic acid[(1S,2S,5R)-3-(2′-fluoro-biphenyl-2-carbonyl)-3-aza-bicyclo[3.1.0]hex-2-ylmethyl]-amide]	174 nM	22 nM	
Cc1nc(C(=O)N2C[C@@H]3C[C@@H]3[C@H]2CNC(=O)c2cccc3c2CCO3)c(-c2cccc(C(F)(F)F)c2)s1 [Example 201, 2,3-Dihydro-benzofuran-4-carboxylic acid {(1S,2S,5R)-3-[2-methyl-5-(3-trifluoromethyl-phenyl)-thiazole-4-carbonyl]-3-aza-bicyclo[3.1.0]hex-2-ylmethyl}-amide]			IC50 [1, 4]: 349 nM; IC50 [2, 4]: 673 nM
Cc1nc(-c2cccc(F)c2)c(C(=O)N2C[C@@H]3C[C@@H]3[C@H]2CNC(=O)c2c(C)nc3sccn23)s1 [Example 37, 6-Methyl-imidazo[2,1-b]thiazole-5-carboxylic acid{(1S,2S,5R)-3-[4-(3-fluoro-phenyl)-2-methyl-thiazole-5-carbonyl]-3-aza-bicyclo[3.1.0]hex-2-ylmethyl}-amide]	35 nM	85 nM	
Cc1cc(C)cc(C(=O)NC[C@@H]2[C@H]3C[C@H]3CN2C(=O)c2nc(C)sc2-c2cccc(C)c2)c1 [Example 147, 3,5-Dimethyl-N-[(1S,2S,5R)-3-(2-methyl-5-m-tolyl-thiazole-4-carbonyl)-3-aza-bicyclo[3.1.0]hex-2-ylmethyl]-benzamide]	26 nM	324 nM	
Cc1cccc(-c2sc(C)nc2C(=O)N2C[C@@H]3C[C@@H]3[C@H]2CNc2ncc(Br)cn2)c1 [Example 244, {(1S,2S,5R)-2-[(5-Bromo-pyrimidin-2-ylamino)-methyl]-3-aza-bicyclo[3.1.0]hex-3-yl}-(2-methyl-5-m-tolyl-thiazol-4-yl)-methanone]			IC50 [1, 4]: 639 nM; IC50 [2, 4]: 51 nM
Cc1cccc(-c2sc(C)nc2C(=O)N2C[C@@H]3C[C@@H]3[C@H]2CNC(=O)c2cccc3c2OCC(=O)N3)c1 [Example 169, 3-Oxo-3,4-dihydro-2H-benzo[1,4]oxazine-8-carboxylic Acid[(1S,2S,5R)-3-(2-methyl-5-m-tolyl-thiazole-4-carbonyl)-3-aza-bicyclo[3.1.0]hex-2-ylmethyl]-amide]	61 nM	> 10000 nM	
Cc1cccc(-c2sc(C)nc2C(=O)N2C[C@@H]3C[C@@H]3[C@H]2CNC(=O)c2cccc3c2N(C)CCO3)c1 [Example 177, 4-Methyl-3,4-dihydro-2H-benzo[1,4]oxazine-5-carboxylic Acid[(1S,2S,5R)-3-(2-methyl-5-m-tolyl-thiazole-4-carbonyl)-3-aza-bicyclo[3.1.0]hex-2-ylmethyl]-amide]	88 nM	691 nM	
Cc1cccc(-c2sc(C)nc2C(=O)N2C[C@@H]3C[C@@H]3[C@H]2CNC(=O)c2cc(Br)ccc2Cl)c1 [Example 148, 5-Bromo-2-chloro-N-[(1S,2S,5R)-3-(2-methyl-5-m-tolyl-thiazole-4-carbonyl)-3-aza-bicyclo[3.1.0]hex-2-ylmethyl]-benzamide]	102 nM	1080 nM	
Cc1nc2sccn2c1C(=O)NC[C@@H]1[C@H]2C[C@H]2CN1C(=O)c1ccccc1C1CCCCC1 [Example 31, 6-Methyl-imidazo[2,1-b]thiazole-5-carboxylic acid[(1S,2S,5R)-3-(2-cyclohexyl-benzoyl)-3-aza-bicyclo[3.1.0]hex-2-ylmethyl]-amide]	167 nM	960 nM	
Cn1nc(C(=O)NC[C@@H]2[C@H]3C[C@H]3CN2C(=O)c2nc(N)sc2-c2cccc(F)c2)c2ccccc21 [Example 117, 1-Methyl-1H-indazole-3-carboxylic Acid{(1S,2S,5R)-3-[2-amino-5-(3-fluoro-phenyl)-thiazole-4-carbonyl]-3-aza-bicyclo[3.1.0]hex-2-ylmethyl}-amide]	8 nM	80 nM	
Cc1cccc(-c2sc(C)nc2C(=O)N2C[C@@H]3C[C@@H]3[C@H]2CNC(=O)c2cccc3nc(C)oc23)c1 [Example 256, 2-Methyl-benzoxazole-7-carboxylic acid [(1S,2S,5R)-3-(2-methyl-5-m-tolyl-thiazole-4-carbonyl)-3-aza-bicyclo[3.1.0]hex-2-ylmethyl]-amide]			IC50 [1, 3]: 55 nM; IC50 [2, 3]: 64 nM
Cc1nc(C(=O)N2C[C@@H]3C[C@@H]3[C@H]2CNc2ncc(Br)cn2)c(-c2ccc(C)c(F)c2)s1 [Example 252, {(1S,2S,5R)-2-[(5-Bromo-pyrimidin-2-ylamino)-methyl]-3-aza-bicyclo[3.1.0]hex-3-yl}-[5-(3-fluoro-4-methyl-phenyl)-2-methyl-thiazol-4-yl]-methanone]			IC50 [1, 4]: 350 nM; IC50 [2, 4]: 79 nM
Cc1cccc(-c2sc(C)nc2C(=O)N2C[C@@H]3C[C@@H]3[C@H]2CNC(=O)c2cc(F)cc3c2OCOC3)c1 [Example 42, 6-Fluoro-4H-benzo[1,3]dioxine-8-carboxylic Acid[(1S,2S,5R)-3-(2-methyl-5-m-tolyl-thiazole-4-carbonyl)-3-aza-bicyclo[3.1.0]hex-2-ylmethyl]-amide]	12 nM	49 nM	
